In the SangsterLogP compilation:

Assay: method code SF, from Hansch, C. & Leo, A. (1987). Log P database [Dataset]. Pomona College Medicinal Chemistry Project.
Conditions: not given
Compound `CCOC(=O)C(=Cc1ccc(O)c(OC)c1)C(=O)OCC` has a logP of 2.89. Work on `O=S(=O)(c1ccccc1)C(F)(F)F` yielded a logP of 2.69. `CN(C)c1ccc2c(c1)C(=O)OC2(C)C` showed a logP of 2.42. In the case of `O=[N+]([O-])c1ccc(C=Cc2nc[nH]n2)o1`, the logP is reported as 1.1. Compound `NC(=O)c1cccc(C(N)=O)c1` has a logP of -0.21. `N#CSCc1ccccc1` showed a logP of 1.99. `Cc1ccc2[nH]c(=O)[nH]c(=O)c2c1` showed a logP of 0.55. `CCOC(=O)C(=Cc1ccc(OC)cc1)C(C)=O` gave a logP of 2.46. Work on `CC(C)(C)C` yielded a logP of 3.11. With `O=Nc1ccc(O)c2ccccc12` the logP was 2.27. For `CC(=O)Oc1ccccc1F`, the logP was 1.76. `N#CN=[N+]([O-])c1cccc(C#N)c1` gave a logP of 1.15. `CN(C(=O)c1ccccc1)c1ccccc1` gave a logP of 2.36. For `O=C(O)COc1ccc(Cl)c(Cl)c1`, the logP was 2.81. With `CN(C)C(=O)Nc1ccc(C(C)(C)C)cc1` the logP was 3.1. With `CCOC(=O)C(=Cc1cccc(Cl)c1)C(=O)OCC` the logP was 3.49. `O=C1OCc2ccccc21` showed a logP of 0.8. Work on `CNC(=O)Oc1cc(C)c(Cl)cc1Cl` yielded a logP of 3. Compound `CCOC(=O)NC(O)C(Cl)(Cl)Cl` (configuration not stated) has a logP of 1.84. With `CCOC(=O)C(=Cc1ccc(F)cc1)C(=O)OCC` the logP was 3.1. In the case of `CC(=O)OCC(COC(C)=O)OC(C)=O`, the logP is reported as 0.25. In the case of `[O-][n+]1ccccc1SCc1ccccc1`, the logP is reported as 1.24. `CCOC(=O)C(=Cc1ccc(Cl)cc1)C(C)=O` showed a logP of 3.04. Compound `CCC(C)C(=O)Nc1ccccc1` (configuration not stated) has a logP of 2.56. For `CCCCC1OC(=O)c2cc(N(CCO)CCO)ccc21` (configuration not stated), the logP was 1.34. `CSc1cccc(NC(C)=O)c1` gave a logP of 2.14. Work on `CCOCCCl` yielded a logP of 0.98. Compound `O=C(Nc1ccccc1)NC(CO)(CO)CO` has a logP of 0.43. Compound `O=C1C(=O)c2cccc3cccc1c23` has a logP of 1.95. In the case of `COc1cc(S(C)=O)ccc1-c1cn2ccncc2n1` (configuration not stated), the logP is reported as 1.11. For `CCOP(=S)(OCC)SCn1nnc2ccccc2c1=O`, the logP was 3.4. Work on `NC(=O)c1ccc(C(O)C(CO)NC(=O)C(Cl)Cl)cc1` (configuration not stated) yielded a logP of -0.48. In the case of `Cc1cccc(C(N)=O)c1`, the logP is reported as 1.18. For `NC(=S)c1ccccc1N`, the logP was 0.99. `CCOC(=O)C(=Cc1ccc([N+](=O)[O-])cc1)C(=O)OCC` showed a logP of 3.03. For `CCOC(=O)CNCCCCCSc1c2[nH]cnc2nc[n+]1[O-]`, the logP was 0.87. For `CCC(C)NC(=O)/C(Br)=C\c1ccccc1` (configuration not stated), the logP was 3.56. With `C1=Cc2ccccc2C1` the logP was 2.92. Compound `CCCCCCCCC1OC(=O)c2ccccc21` (configuration not stated) has a logP of 3.94. Work on `CC(C)(C)c1ccccc1OCC(=O)O` yielded a logP of 3.33. In the case of `Nc1c(S(=O)(=O)O)ccc2ccccc12`, the logP is reported as -0.97. In the case of `NC(=O)N=[N+]([O-])c1ccccc1`, the logP is reported as 0.58. `O=C(c1ccncc1)c1ccc(O)cc1` gave a logP of 1.37. `O=C(Nc1ccc(Cl)c(Cl)c1)C1CCCC1` gave a logP of 4.47. Compound `CC(O)CCC(=O)c1ccoc1` (configuration not stated) has a logP of 0.84. `CN(C(=O)CCI)c1ccc(S(=O)(=O)N(C)C)cc1` gave a logP of 1.39. For `CN(C=O)c1ccc(S(=O)(=O)N(C)C)cc1`, the logP was 0.4. Work on `CCOCCOC(=O)C(C#N)=CC(C)(C)NCc1ccc(Cl)cc1` yielded a logP of 4.05. For `O=S1(=O)NC(C(Cl)Cl)=Nc2cc(Cl)ccc21`, the logP was 1.81. With `O=C(COc1ccccc1)N1CCCCC1` the logP was 1.81. `O=[N+]([O-])Cc1ccccc1` showed a logP of 1.75. In the case of `CCOS(=O)(=O)c1ccc(C)cc1`, the logP is reported as 1.81. `COC(=O)Cc1ccsc1` gave a logP of 1.46. `c1ccc(-n2cccn2)cc1` showed a logP of 2.2. In the case of `CCCC1=Nc2cc(Cl)ccc2S(=O)(=O)N1`, the logP is reported as 2.04. In the case of `Cn1c(=O)c(=O)n(C)c2ccccc21`, the logP is reported as 0.08. With `CCC(=O)O[C@]1(C(=O)CO)[C@H](C)C[C@H]2[C@@H]3C[C@H](F)C4=CC(=O)C(Cl)=C[C@]4(C)[C@@]3(F)[C@@H](O)C[C@@]21C` the logP was 2.99. Compound `CCOC(=O)c1cccs1` has a logP of 2.33. For `CC(=O)Nc1ccc(C(C)=O)cc1`, the logP was 1.24. For `CCN(CC)c1ccc(NC(=O)N(C)OC)cc1`, the logP was 2.33. With `O=C(O)c1csc(C=Cc2ccc([N+](=O)[O-])o2)n1` the logP was -0.03. For `c1ccc2c(c1)CNc1ccccc1C2`, the logP was 2.9. With `NC(=O)c1cccc(N)c1` the logP was -0.33. Work on `C=C(C=O)CC` yielded a logP of 1.24. `CCOC(=O)C(=Cc1ccccc1OC)C(=O)OCC` gave a logP of 3.29. For `O=S(=O)(NO)c1ccccc1`, the logP was 0.48. Work on `O=S1(=O)NC(C2=CCCC2)=Nc2ccccc21` yielded a logP of 1.69. With `CN(C)/N=N/c1cc(C#N)cc(C#N)c1` the logP was 2.18. Work on `ClCCCCl` yielded a logP of 2. `Cn1ncc2ccccc2c1=O` showed a logP of 0.61. For `CNc1nccn2cc(-c3ccc(S(C)=O)cc3OC)nc12` (configuration not stated), the logP was 1.88. `CC[N+](=O)[O-]` gave a logP of 0.18. Work on `c1ccc(COc2ccccc2)cc1` yielded a logP of 3.79. In the case of `CC(Cl)(Cl)Cl`, the logP is reported as 2.49. Compound `O=[N+]([O-])c1ccc(C=Cc2ncccn2)o1` has a logP of 1.34. For `Nc1ccc2cc3ccccc3nc2c1`, the logP was 2.19. Compound `CCc1ccccc1OC(C)=O` has a logP of 2.42. Work on `CC(=O)c1cccc(OC(=O)N(C)C)c1` yielded a logP of 1.18. `O=c1[nH]cc(C(F)(F)F)c(=O)[nH]1` showed a logP of 0.04. `CCOP(=S)(OCC)Oc1ccc(SC)c(Cl)c1` gave a logP of 5.06. `COC(=O)CNC(=O)c1ccc(N)cc1` gave a logP of -0.23. With `CCN(CC)c1ccc(CO)cc1` the logP was 2.29. With `CNC(N)=NC#N` the logP was -0.77. In the case of `NS(=O)(=O)NCCc1ccccc1`, the logP is reported as 0.81. `CC(=O)Oc1ccc(N=C2C=CC(=O)C=C2)cc1` showed a logP of 1.43. For `Nc1cccc(Cl)c1`, the logP was 1.9. With `CNC(=O)COc1ccccc1` the logP was 1.02. In the case of `CC(=O)N(C)/N=N/c1ccc(C)cc1`, the logP is reported as 3.23. `C[C@@H]1C[C@@H]([C@H](O)CC2CC(=O)NC(=O)C2)C(=O)[C@@H](C)C1` showed a logP of 0.55. With `Clc1ccc2ncccc2c1` the logP was 2.73. With `FC(F)(F)c1ccccc1` the logP was 2.9. For `CNP(=O)(OC)Oc1ccc(OC)cc1` (configuration not stated), the logP was 1.06.

Same assay, conditions: pH 1.0
In the case of `O=C(O)CSc1ccccc1`, the logD is reported as 1.88. In the case of `CCCN(CCC)S(=O)(=O)c1ccc(C(=O)O)cc1`, the logD is reported as 3.21.

Same assay, conditions: pH 2.0
In the case of `O=C(O)c1cc2ccccc2[nH]1`, the logD is reported as 2.31.

Same assay, conditions: pH 5.4
With `O=C(c1ccccc1)c1cccc(NS(=O)(=O)C(F)F)c1` the logD was 2.86.

Same assay, conditions: pH 6.2
With `Nc1nc(CON=CC(=O)NC2C(=O)N3C(C(=O)OC4OC(=O)c5ccccc54)=CCSC23)cs1` (configuration not stated) the logD was 1.28.

Same assay, conditions: pH 6.6
With `CON=C(C(=O)NC1C(=O)N2C(C(=O)OCOC(=O)C(C)(C)C)=C(CSc3nnnn3C)CSC12)c1csc(N)n1` (configuration not stated) the logD was 1.74.

Same assay, conditions: pH 6.8
Compound `COC1(NC(=O)CSC(F)F)C(=O)N2C(C(=O)OCC(=O)C(C)(C)C)=C(CSC3(C)N=NN=N3)CSC21` (configuration not stated) has a logD of 2.31.

Same assay, conditions: pH 7.0
Work on `Brc1ccc2ncccc2c1` yielded a logD of 2.83. Compound `CN1CC(C)(C)C(=O)c2ccccc21` has a logD of 2.72. With `O=CNc1ccc(F)cc1` the logD was 1.27.

Same assay, conditions: pH 7.4
With `COc1ccc(-n2c(C)c(N(C)C)c(=O)n(C)c2=O)cc1` the logD was 1.96. For `NC(=O)c1ncccc1O`, the logD was 0.65. `CC(=O)NN=CCCc1ccccc1` showed a logD of 1.8. `CO[C@H]1O[C@H](CNC(=O)N(C)N=O)[C@@H](O)[C@H](O)[C@H]1O` gave a logD of -1.57.

Same assay, conditions: pH 11.0
`CN(C)CCCCc1cccnc1` showed a logD of 1.49.

Same assay, conditions: pH 12.0
Work on `CC1(C)N=C(N)N=C(N)N1c1cccc([N+](=O)[O-])c1` yielded a logD of 0.06. `CCCC1CC(C(=O)NC(C(C)Cl)C2OC(SCC)C(O)C(O)C2O)N(CC)C1` (configuration not stated) gave a logD of 3.18.

Same assay, conditions: pH 13.0
`COc1cc(Cc2cnc(N)nc2N)cc(OC)c1N(C)C` gave a logD of 1.51. Compound `CN(c1ccccc1)c1ccccc1` has a logD of 3.9. Compound `Cc1ccc(N2C(N)=NC(N)=NC2(C)C)cc1` has a logD of 0.85.
